# In patent US10842767B2, “Use of ketone esters for prevention of CNS oxygen toxicity” (University of South Florida, priority 2011, dated 2020):
# Several values for one entry are separate records, joined by “and”; a condition that tells them apart may be missing. Equal values may be shown once. Entries after “also recorded” stand apart in the source; their conditions may differ. Read-outs that look alike come from different tables or passages of the source.
# What was measured:
# [1] = for blood pH after administration (FIG. 20): from 7.45
# [2] = Blood ketones (BHB, AcAc, acetone) and glucose after oral gavage; type: in vivo, rat; conditions: for blood BHB level versus control (words) / effect on blood glucose / blood AcAc / acetone level: ~10 g/kg gavage; for effect on blood glucose: over 4 hrs, relative to control (water); for blood AcAc / acetone level: acetone at 60 min; for duration of elevation of blood ketones: single oral/intragastric administration
# Procedure: To determine the time course of ketosis, 18 adult male Sprague-Dawley rats (250-350 grams), pathogen-free, were purchased from a vendor (Harlan) and shipped 7 days after being implanted with carotid catheters. The rats were food (not water) deprived for 18 hours prior to the start of the experiment. […] Whole blood samples (10 μl) were acquired for analysis of glucose and BHB at USF utilizing a commercially available glucose/ketone monitoring system (Nova Max® Plus) at time 0, 30, 60, 120, 180 and 240 min. In addition, heparinized blood samples (200 μl) were collected into Eppendorf tubes at time 0, 30, 60, 120, 180 and 240 min. Samples were processed for the detection and quantification of BHB, AcAc, and acetone at Case Western Reserve University, Mouse Metabolic Phenotyping Center (MMPC). Briefly, samples were chilled on ice for 30 s, centrifuged in a micro-centrifuge (13,000 G) for 3-5 min and plasma (>100 μl), treated with reducing reagent of cold 0.2M sodium borodeuteride (NaBD4; Sigma, 205591, CAS 15681-89-7) dissolved in 0.1M NaOH (8.4 mg NaBD4 in 1 ml of 0.1M NaOH) and then immediately frozen on dry ice before storing at −80° C. Acetone was analyzed at the 60 minute time point, which was the predicted peak of blood AcAc levels (Desrochers et al. 1995). 300 μl of whole blood were collected in addition to the above collections, stabilized with cold 0.2M NaBD4, and then immediately frozen on dry ice. Samples were stored at −80° C. until analyzed for ketones. Internal standards of [^2H6]BHB or [^2H8]isopropanol were added to the treated plasma or blood samples (50 μl or 15 μl) and the BHB, AcAc (as M+1 of BHB) or acetone (as 2-propanol) metabolites were analyzed by gas chromatography-mass spectrometry (GC-MS) using an Agilent 5973 mass spectrometer, linked to a 6890 gas chromatograph equipped with an autosampler. Briefly, GC-MS conditions were either EI or CI mode (electron or chemical ionization mode); the samples were detected by selected ion monitoring as the BHB- and AcAc-trimethylsilyl derivatives (EI) or the derivative of acetone-pentafluorobenzoyl (CI). […]
# Ketone measurements were taken at 30, 60, 120, 180 and 240 minutes. Blood plasma was treated with sodium borodeuteride (NaB2H4) to stabilize ketone concentration and then assayed by GC-MS. The rapid rise relating to blood ketones from BD-AcAc2 is due primarily from rapid desterfication in blood and tissues.
# [3] = tested on: rats exposed to 5 ATA O2 (CNS oxygen toxicity seizures); experiment: Latency to seizure (CNS-OT) in rats breathing hyperbaric oxygen at 5 ATA, radio-telemetry EEG; type: in vivo, rat; conditions: for increase in latency to seizure (LS) compared to control (water): rats, 5 ATA O2, ~10 g/kg (3 ml) gavage 30 min before dive
# From the text: All animal procedures were done in accordance with the University of South Florida Institutional Animal Care and Use Committee (IACUC) guidelines. Adult male Sprague-Dawley rats (n=60), 250-300 grams, were obtained from Harlan, anesthetized in 3-5% isoflurane (in O2) and implanted with a 4ET radio-transmitter (Data Sciences International, DSI) using sterile surgical technique. One pair of leads (positive and negative poles) was implanted in the costal diaphragm at the junction with the abdominal wall for diaphragmatic electromyogram (dEMG) signals, one pair of electrodes was inserted in the pectoral muscle to acquire electrocardiogram (ECG) data, and two pairs of wires were embedded in the skull between Bregma and Lambda, with one lead on either side of midline for each pair (EEG recordings). The EMG wires were not inserted into crural diaphragmatic muscle because of the high risk of pneumothorax due to the thinness of the muscle (419 to 630 μm). 4ET radio-transmitters also monitored core body temperature and physical activity. Rats were weighed immediately before surgery and subsequently once every 7 days, just prior to the weekly exposures to HBO2. After surgery, every animal recovered for ≥1 week.
# The radiotelemetry system consisted of an implantable 4ET radio-transmitter able to amplify and broadcast signals via a receiver (DSI PhysioTel, model RPC-2) connected to an acquisition interface unit (ACQ 7700 Ponemah) via electrical penetrations in the wall of the hyperbaric chamber. The acquisition interface unit was connected to a computer for real time data collection and storage. The same acquisition unit also recorded chamber pressure and temperature, which were measured, respectively, […] directly connected to the acquisition system via BNC (Bayonet Neill-Concelman) cables. Each animal was continuously monitored via a video camera (AXIS 221 Network Camera) and the video of each experiment was recorded as well.
# The hyperbaric system consisted of two main elements: 1) a plexiglass chamber (˜3 liter capacity, Diamond Box, Buxco, Electronics Inc., model PLY3114), that housed the rat during the experiment, and 2) a hyperbaric chamber (Reimers System Inc.—7.8 ATA MWP), that contained the plexiglass chamber and functioned as the pressure vessel. Both chambers were connected to an air compressor (oil-less rotary scroll compressor—model DK6086, Powerex).
# During each experiment (hyperbaric hyperoxia), both the main chamber and the animal chamber were filled with air. Rats were placed into the plexiglass chamber and allowed ten minutes to acclimate, at which time the plexiglass chamber was flushed with 100% O2. The animal was then allowed 15 minutes to acclimate before both chambers were compressed to 5 ATA (58.8 PSIG) at a rate of 0.7 ATA/min. […] Each experiment was visually monitored via a live camera. LS was calculated from the moment at which the internal and the external chambers reached 5 ATA until the onset of convulsions, identified as high-amplitude, high frequency spikes lasting 10 to 30 sec, followed by polyspikes and wave formation concurrent with tonic-clonic motions of forelimbs and head. […]
# The details of this example are explained in the Materials and Methods section above. Briefly, the effects of ketone esters (KEs) in preventing CNS-OT in rats were assessed before, during and after HBO2 exposure by measuring various parameters. […]
# [4] = tested on: primary cultures of rat cortical neurons; experiment: Superoxide anion production (DHE fluorescence) in primary cortex neurons exposed to HBO2 or amyloid beta; type: cell-based; conditions: 60 min 5 ATA O2, NBO and HBO
# Procedure: Primary dissociated neuronal cultures of the hippocampus and cortex are acquired from Brain Bits LLC, to increase time efficiency and to minimize cost associated with purchasing rats. Hippocampal or cortical tissue from Brain Bits (shipped in Hibernate®) are enzymatically and mechanically dissociated via pipette trituration. Neurons are plated on 12 mm glass coverslips and allowed to adhere for 1-2 hrs in an incubator maintained at 9-20% O2 in a humidified atmosphere. Cultures are maintained in media purchased from Brain Bits, including NbActiv1® and NbActive4. […] Fluorescent probes (for use with fluorescence and confocal microscopy)
# List of fluorescence probes that will be purchased from Invitrogen: • Dihydroethidium, DHE (1-10 μM; Exλ 525, Emλ 590) detects intracellular ·O2^− generation (Bindokas et al. 1996; D'Agostino et al. 2007). • Calcein-AM (4 μM; Exλ 490, Emλ 535) detects cell volume and monitors cell viability (Crowe, 1995; Inglefield, 1998; Inglefield, 1999). • Ethidium Homodimer-1, EH-1 (6 μM; Exλ 525, Emλ 590) enters cells upon membrane damage and thus labels dead or dying cells (Bickler and Hansen 1998; Pinheiro et al. 2006). Fluorescence and Confocal Microscopy […]
# Presence of intracellular ROS is measured by detection of superoxide anion using Dihydroethidium (DHE). […] Cells are washed in PBS and then visualized using fluorescent microscopy or quantified using spectrophotometry.
# [5] = in vivo; cited from earlier work
compound,measurement,setting,value
"C[C@H](O)CCO [BD, R,S-1,3-butanediol, reference compound]",acidosis,[1]; acute administration,mild nonpathological acidosis
same,mean decrease of blood pH compared to control (pH~7.5),[1]; after about 30 minutes,0.05
same,mean decrease of blood pH compared to control (pH~7.5),[1]; after about one hour,0.1
same,blood pH after administration (FIG. 20),[1],7.35
same,blood BHB level,"[2]; rats, 10 g/kg oral gavage",> 5 mM
same,blood BHB level versus control (words),[2]; rats,significant increase in BHB
same,effect on blood glucose,[2]; rats,no significant effect on blood glucose levels
same,blood AcAc / acetone level,[2]; rats,only modest elevation in AcAc; also recorded: remained low or undetectable
same,blood BHB level versus control (words),"[2]; rats, listed as 1,3-butanediol",elevated blood levels of β-hydroxybutyrate
"CC(=O)CC(=O)OCCC(C)OC(=O)CC(C)=O (stereo not shown) [BD-AcAc2, R,S-1,3-butanediol acetoacetate diester]",increase in latency to seizure (LS) compared to control (water),[3],> 570%
same,increase in latency to seizure (LS) compared to control (water),[3]; listed as KE,574±115% and 574±116%
same,increase in latency to seizure (LS) compared to control (water),[3]; listed as dKE,570%
same,mean decrease of blood pH compared to control (pH~7.5),[1]; after about 30 minutes,0.05
same,mean decrease of blood pH compared to control (pH~7.5),[1]; after about one hour,0.1
same,blood pO2,[1]; during the 4 hour experiment,> 120 mmHg
same,blood pH after administration (FIG. 20),[1],7.35
same,increase in blood pO2 levels,[1]; significant and sustained,approximately 30%
same,total ketones,[2]; about 30 minutes after gavage,> 5 mM
same,"total blood ketones (BHB, AcAc and acetone)","[2]; after 1 hr, average",> 6 mM
same,blood AcAc level,"[2]; rats, 10 g/kg oral gavage",> 3 mM
same,blood BHB level,"[2]; rats, 10 g/kg oral gavage",> 3 mM
same,blood BHB level versus control (words),[2]; rats,significant increase in BHB and AcAc at 30 minutes
same,effect on blood glucose,[2]; rats,does not elevate blood glucose
same,effect on blood glucose,"[2]; rats, listed as KE",no significant effect on blood glucose levels
same,blood AcAc / acetone level,"[2]; rats, listed as KE",significantly higher at 60 minutes; also recorded: increased significantly
same,sustained elevation of total ketones,"[2]; single oral administration, for over 4 hrs",> 6 mM
same,duration of elevation of blood ketones,[2],over 4 h
same,duration of elevation of blood ketones,[2]; listed as KE,4 h and > 4 h
same,blood acetone level,[2]; within about 60 minutes after administration,~0.7 mM
"CC(=O)CC(=O)OCCC(C)O (stereo not shown) [BD-AcAc, R,S-1,3-butanediol acetoacetate monoester]","latency to seizure, single rat EEG (FIG. 7)","[3]; HBO2 at 60 PSI (5 ATA O2), same rat without ketone ester about 8 minutes",110 min
same,increase in latency to seizure (LS) compared to control (water),[3],285%
"Cc1ccccc1NC(=N)Nc1ccccc1C [DTG, 1,3,-di-o-tolylguanidine]",effect on superoxide production under hyperoxia,[4],prevented the hyperoxia-induced increase in superoxide production
"(R)-1,3-butanediol ester [BHB ester, reference compound]",blood BHB level versus control (words),[2]; rats,elevated blood levels of β-hydroxybutyrate
MCT oil,level of ketones produced by supplementation,[5],< 500 µM
